{
  "source": "patent US7267983B2",
  "about": "(priority 2000, dated 2007)",
  "tested_on": "β-toxin production by Clostridium perfringens",
  "type": "cell-based",
  "set-up": "mean total toxin production: unit not given here",
  "note": "Several values for one entry are separate records, joined by “and”; a condition that tells them apart may be missing. Identical values can stand only once.",
  "data": [
    {"substance": "ALFHE: pentapeptide", "values": [
      {"measurement": "toxin per cell", "value": "increased toxin per cell above the mean"}
    ]},
    {"substance": "DKAL: tetrapeptide", "values": [
      {"measurement": "total toxin ratio (total toxin with test peptide divided by base media total toxin)", "value": "increased the total toxin ratio"}
    ]},
    {"substance": "DKTNG: pentapeptide", "values": [
      {"measurement": "toxin per cell", "value": "increased toxin per cell above the mean"}
    ]},
    {"substance": "DMLQT: pentapeptide", "values": [
      {"measurement": "toxin per cell", "value": "increased toxin per cell above the mean"}
    ]},
    {"substance": "DTHHI: pentapeptide", "values": [
      {"measurement": "toxin per cell", "value": "increased toxin per cell above the mean"}
    ]},
    {"substance": "EKALE: pentapeptide", "values": [
      {"measurement": "toxin per cell", "value": "increased toxin per cell above the mean"}
    ]},
    {"substance": "ELSPH: pentapeptide", "values": [
      {"measurement": "toxin per cell", "value": "increased toxin per cell above the mean"}
    ]},
    {"substance": "ESLQM: pentapeptide", "values": [
      {"measurement": "toxin per cell", "value": "increased toxin per cell above the mean"}
    ]},
    {"substance": "ETLNL: pentapeptide", "values": [
      {"measurement": "mean total toxin production", "value": 8.28}
    ]},
    {"substance": "ETVNF: pentapeptide", "values": [
      {"measurement": "toxin per cell", "value": "increased toxin per cell above the mean"}
    ]},
    {"substance": "FDIST: pentapeptide", "values": [
      {"measurement": "mean total toxin production", "value": 8.395}
    ]},
    {"substance": "FEFGV: pentapeptide", "values": [
      {"measurement": "toxin per cell", "value": "increased toxin per cell above the mean"}
    ]},
    {"substance": "FEFVG: pentapeptide", "values": [
      {"measurement": "amount of toxin produced per cell", "value": "doubled"},
      {"measurement": "mean total toxin production", "value": "8.79 and 8.787"},
      {"measurement": "total toxin in the two-point ELISA over optimized base medium alone", "value": "about 2.2 ×"},
      {"measurement": "total toxin produced by the culture", "value": "near doubling"}
    ]},
    {"substance": "FMSTA: pentapeptide", "values": [
      {"measurement": "toxin per cell", "value": "increased toxin per cell above the mean"}
    ]},
    {"substance": "FSFVE: pentapeptide", "values": [
      {"measurement": "mean total toxin production", "value": 8.727}
    ]},
    {"substance": "FSLLE: pentapeptide", "values": [
      {"measurement": "mean total toxin production", "value": 8.855}
    ]},
    {"substance": "FVPEK: pentapeptide", "values": [
      {"measurement": "toxin per cell", "value": "increased toxin per cell above the mean"}
    ]},
    {"substance": "GDYVS: pentapeptide", "values": [
      {"measurement": "toxin per cell", "value": "increased toxin per cell above the mean"}
    ]},
    {"substance": "GGMPG: pentapeptide", "values": [
      {"measurement": "toxin per cell", "value": "increased toxin per cell above the mean"}
    ]},
    {"substance": "GYPEV: pentapeptide", "values": [
      {"measurement": "toxin per cell", "value": "increased toxin per cell above the mean"}
    ]},
    {"substance": "HAPAY: pentapeptide", "values": [
      {"measurement": "toxin per cell", "value": "increased toxin per cell above the mean"}
    ]},
    {"substance": "HTVEL: pentapeptide", "values": [
      {"measurement": "beta toxin accumulation in the culture supernatant", "value": "enhance beta toxin accumulation"},
      {"measurement": "toxin per cell", "value": "increased toxin per cell above the mean"}
    ]},
    {"substance": "IKLAS: pentapeptide", "values": [
      {"measurement": "mean total toxin production", "value": 7.7475}
    ]},
    {"substance": "KFIEK: pentapeptide", "values": [
      {"measurement": "toxin per cell", "value": "increased toxin per cell above the mean"}
    ]},
    {"substance": "KFIFE: pentapeptide", "values": [
      {"measurement": "toxin per cell", "value": "increased toxin per cell above the mean"}
    ]},
    {"substance": "KPLDV: pentapeptide", "values": [
      {"measurement": "toxin per cell", "value": "increased toxin per cell above the mean"}
    ]},
    {"substance": "KTVGI: pentapeptide", "values": [
      {"measurement": "toxin per cell", "value": "increased toxin per cell above the mean"}
    ]},
    {"substance": "LADTF: pentapeptide", "values": [
      {"measurement": "toxin per cell", "value": "increased toxin per cell above the mean"}
    ]},
    {"substance": "LPDLF: pentapeptide", "values": [
      {"measurement": "toxin per cell", "value": "increased toxin per cell above the mean"}
    ]},
    {"substance": "LSAL: tetrapeptide", "values": [
      {"measurement": "toxin production", "value": "significantly inhibited toxin production"}
    ]},
    {"substance": "LSFIE: pentapeptide", "values": [
      {"measurement": "toxin per cell", "value": "increased toxin per cell above the mean"}
    ]},
    {"substance": "MHAPP: pentapeptide", "values": [
      {"measurement": "toxin per cell", "value": "increased toxin per cell above the mean"}
    ]},
    {"substance": "MMELE: pentapeptide", "values": [
      {"measurement": "toxin per cell", "value": "increased toxin per cell above the mean"}
    ]},
    {"substance": "MPNNF: pentapeptide", "values": [
      {"measurement": "toxin per cell", "value": "increased toxin per cell above the mean"}
    ]},
    {"substance": "NEGLG: pentapeptide", "values": [
      {"measurement": "toxin per cell", "value": "increased toxin per cell above the mean"}
    ]},
    {"substance": "NEYLY: pentapeptide", "values": [
      {"measurement": "mean total toxin production", "value": 8.665}
    ]},
    {"substance": "NLTEL: pentapeptide", "values": [
      {"measurement": "mean total toxin production", "value": 8.321}
    ]},
    {"substance": "NNNNN: pentapeptide", "values": [
      {"measurement": "toxin production", "value": "toxin production above the mean obtained in 0.5% hydrolysate media"}
    ]},
    {"substance": "NQLEV: pentapeptide", "values": [
      {"measurement": "mean total toxin production", "value": 7.81}
    ]},
    {"substance": "PELME: pentapeptide", "values": [
      {"measurement": "toxin per cell", "value": "increased toxin per cell above the mean"}
    ]},
    {"substance": "PLFEQ: pentapeptide", "values": [
      {"measurement": "toxin per cell", "value": "increased toxin per cell above the mean"}
    ]},
    {"substance": "QNDVY: pentapeptide", "values": [
      {"measurement": "beta toxin accumulation in the culture supernatant", "value": "enhance beta toxin accumulation"},
      {"measurement": "toxin per cell", "value": "increased toxin per cell above the mean"}
    ]},
    {"substance": "SNGIY: pentapeptide", "values": [
      {"measurement": "toxin per cell", "value": "increased toxin per cell above the mean"}
    ]},
    {"substance": "SQLEL: pentapeptide", "values": [
      {"measurement": "mean total toxin production", "value": 8.284}
    ]},
    {"substance": "SVMEM: pentapeptide", "values": [
      {"measurement": "toxin per cell", "value": "increased toxin per cell above the mean"}
    ]},
    {"substance": "SYIME: pentapeptide", "values": [
      {"measurement": "toxin per cell", "value": "increased toxin per cell above the mean"}
    ]},
    {"substance": "TKPFF: pentapeptide", "values": [
      {"measurement": "toxin per cell", "value": "increased toxin per cell above the mean"}
    ]},
    {"substance": "VDLLG: pentapeptide", "values": [
      {"measurement": "toxin per cell", "value": "increased toxin per cell above the mean"}
    ]},
    {"substance": "VEFTN: pentapeptide", "values": [
      {"measurement": "toxin per cell", "value": "increased toxin per cell above the mean"}
    ]},
    {"substance": "VHVYQ: pentapeptide", "values": [
      {"measurement": "toxin production", "value": "toxin production above the mean obtained in 0.5% hydrolysate media"}
    ]},
    {"substance": "VNVQA: pentapeptide", "values": [
      {"measurement": "toxin per cell", "value": "increased toxin per cell above the mean"}
    ]},
    {"substance": "YENLY: pentapeptide", "values": [
      {"measurement": "toxin per cell", "value": "increased toxin per cell above the mean"}
    ]},
    {"substance": "YEQQN: pentapeptide", "values": [
      {"measurement": "toxin per cell", "value": "increased toxin per cell above the mean"}
    ]},
    {"substance": "YEYIG: pentapeptide", "values": [
      {"measurement": "total toxin mean value", "value": "greater than twice that obtained using 3.5% hydrolysate alone"}
    ]},
    {"substance": "YEYIY: pentapeptide", "values": [
      {"measurement": "toxin per cell", "value": "increased toxin per cell above the mean"}
    ]}
  ]
}
